Drawing on patent US11192891B2, “Diazaspiro ROCK inhibitors” (BRISTOL-MYERS SQUIBB COMPANY, priority 2017, dated 2021), this text covers IC50 for 34 molecules.

For orientation: IC50 means the concentration that inhibits the measured activity by half.

The target in the assay is ROCK2 (Homo sapiens, UniProt O75116). The assay is described as follows: ROCK kinase inhibition assay, FITC peptide substrate, LABCHIP 3000 readout. The settings on record: 5 μM ATP, 1.5 μM peptide substrate. It is filed as biochemical. As for the experimental part: Compounds were dissolved in DMSO so that the final concentration of DMSO was <2%, and the reaction was initiated with Rho kinase variants. After incubation, the reaction was terminated by the addition of EDTA and the phosphorylated and non-phosphorylated peptides separated using a LABCHIP® 3000 Reader (Caliper Life Sciences). […] Compounds were tested in dose-response format, and the inhibition of kinase activity was calculated at each concentration of compound.
Sequence of ROCK2 (O75116 whole entry, species assumed): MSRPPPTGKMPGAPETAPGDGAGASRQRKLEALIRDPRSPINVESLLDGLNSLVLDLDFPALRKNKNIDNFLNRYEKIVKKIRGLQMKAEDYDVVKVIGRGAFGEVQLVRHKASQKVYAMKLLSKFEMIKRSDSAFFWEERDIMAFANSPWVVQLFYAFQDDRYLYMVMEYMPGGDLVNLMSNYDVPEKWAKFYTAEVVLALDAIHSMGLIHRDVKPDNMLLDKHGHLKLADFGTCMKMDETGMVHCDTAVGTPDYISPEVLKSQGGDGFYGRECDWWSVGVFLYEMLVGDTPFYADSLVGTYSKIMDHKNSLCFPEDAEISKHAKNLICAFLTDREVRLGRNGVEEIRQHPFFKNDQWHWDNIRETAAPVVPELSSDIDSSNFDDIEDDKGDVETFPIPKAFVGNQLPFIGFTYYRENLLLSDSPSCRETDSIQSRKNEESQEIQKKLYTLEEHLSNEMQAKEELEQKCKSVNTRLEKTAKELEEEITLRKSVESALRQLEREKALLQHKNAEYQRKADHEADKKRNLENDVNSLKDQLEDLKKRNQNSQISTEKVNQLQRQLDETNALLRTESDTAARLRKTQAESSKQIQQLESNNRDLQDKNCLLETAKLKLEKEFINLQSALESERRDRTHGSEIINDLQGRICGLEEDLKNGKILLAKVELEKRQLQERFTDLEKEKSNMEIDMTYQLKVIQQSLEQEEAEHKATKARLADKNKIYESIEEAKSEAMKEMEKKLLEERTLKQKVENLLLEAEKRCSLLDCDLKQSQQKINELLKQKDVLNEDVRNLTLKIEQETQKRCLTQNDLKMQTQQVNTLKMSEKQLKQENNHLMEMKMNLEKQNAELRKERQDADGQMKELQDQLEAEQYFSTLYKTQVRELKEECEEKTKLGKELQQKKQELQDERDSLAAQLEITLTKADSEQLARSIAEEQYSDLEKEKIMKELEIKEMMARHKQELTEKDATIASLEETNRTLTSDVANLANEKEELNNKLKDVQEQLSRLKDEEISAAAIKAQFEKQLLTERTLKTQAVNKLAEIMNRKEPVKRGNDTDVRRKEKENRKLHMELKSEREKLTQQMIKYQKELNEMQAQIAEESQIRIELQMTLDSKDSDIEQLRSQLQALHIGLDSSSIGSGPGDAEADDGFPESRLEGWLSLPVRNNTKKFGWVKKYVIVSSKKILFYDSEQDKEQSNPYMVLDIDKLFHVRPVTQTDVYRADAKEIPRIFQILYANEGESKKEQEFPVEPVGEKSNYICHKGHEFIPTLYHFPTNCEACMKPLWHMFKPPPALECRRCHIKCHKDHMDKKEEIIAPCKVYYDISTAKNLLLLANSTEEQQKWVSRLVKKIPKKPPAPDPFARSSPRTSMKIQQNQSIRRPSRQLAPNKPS
Consider `CN1CCN(c2ccc(C(=O)N3CCC4(CC3)CCN(c3ccc(-c5ccc6cn[nH]c6c5)cc3)C4=O)cc2)CC1` [Example 34, 2-[4-(1H-indazol-6-yl)phenyl]-8-[4-(4-methylpiperazin-1-yl)benzoyl]-2,8-diazaspiro[4.5]decan-1-one], for which the IC50 turned out to be 106 nM. That is a sub-micromolar value.
For `CN1CCN(c2ccc(C(=O)N3CCC4(CC3)CCN(c3ccc(-c5ccnc6[nH]ccc56)cc3)C4=O)cc2)CC1` [Example 35, 8-[4-(4-methylpiperazin-1-yl)benzoyl]-2-(4-{1H-pyrrolo[2,3-b]pyridin-4-yl}phenyl)-2,8-diazaspiro[4.5]decan-1-one], the 50% inhibitory concentration (IC50) amounted to 0.3 nM.
The molecule `CN1CCN(c2ccc(C(=O)N3CCC4(CC3)CCN(c3ccc(-c5ccnc(N)c5)cc3)C4=O)cc2)CC1` [Example 36, 2-[4-(2-aminopyridin-4-yl)phenyl]-8-[4-(4-methylpiperazin-1-yl)benzoyl]-2,8-diazaspiro[4.5]decan-1-one] registered a half-maximal inhibitory concentration (IC50) of 2 nM. This IC50 is about 6.7-fold higher than that of the molecule before.
The result for `CN1CCN(c2ccc(C(=O)N3CCC4(CC3)CCN(c3ccc(-c5ccc6[nH]ncc6c5)cc3)C4=O)cc2)CC1` [Example 37, 2-[4-(1H-indazol-5-yl)phenyl]-8-[4-(4-methylpiperazin-1-yl)benzoyl]-2,8-diazaspiro[4.5]decan-1-one] reads 0.5 nM; that for `CN1CCN(c2ccc(C(=O)N3CCC4(CC3)CCN(c3ccc(-c5ccc6nn[nH]c6c5)cc3)C4=O)cc2)CC1` [Example 38, 2-[4-(1H-1,2,3-benzotriazol-6-yl)phenyl]-8-[4-(4-methylpiperazin-1-yl)benzoyl]-2,8-diazaspiro[4.5]decan-1-one], 116 nM.
Regarding `COc1ccc(C(=O)N2CCC3(CC2)CCN(c2ccc(-c4cn[nH]c4)c(OC)n2)C3=O)cc1` [Example 39, 2-[6-methoxy-5-(1H-pyrazol-4-yl)pyridin-2-yl]-8-(4-methoxybenzoyl)-2,8-diazaspiro[4.5]decan-1-one], the half-inhibitory concentration (IC50) came to 4 nM.
Next, `COc1ccc(C(=O)N2CCC3(CC2)CN(c2ccc(-c4cn[nH]c4)cc2)C3=O)cc1` [Example 40, 7-(4-methoxybenzoyl)-2-[4-(1H-pyrazol-4-yl)phenyl]-2,7-diazaspiro[3.5]nonan-1-one]: 132 nM.
Consider `COc1cccc(C(=O)N2CCC3(CC2)CN(c2ccc(-c4cn[nH]c4)cc2)C3=O)c1` [Example 41, 7-(3-methoxybenzoyl)-2-[4-(1H-pyrazol-4-yl)phenyl]-2,7-diazaspiro[3.5]nonan-1-one], for which the IC50 came out at 285 nM.
The result for `O=C(c1ccccc1)N1CCC2(CCN(c3ccc(-c4cn[nH]c4)cc3)C2=O)C1` (stereo not shown) [Example 42, 7-benzoyl-2-[4-(1H-pyrazol-4-yl)phenyl]-2,7-diazaspiro[4.4]nonan-1-one] reads 1220 nM.
The result for `COc1ccccc1C(=O)N1CCC2(CCN(c3ccc(-c4cn[nH]c4)cc3)C2=O)C1` (stereo not shown) [Example 43, 7-(2-methoxybenzoyl)-2-[4-(1H-pyrazol-4-yl)phenyl]-2,7-diazaspiro[4.4]nonan-1-one] reads 2560 nM; that for `COc1cccc(C(=O)N2CCC3(CCN(c4ccc(-c5cn[nH]c5)cc4)C3=O)C2)c1` (stereo not shown) [Example 44, 7-(3-methoxybenzoyl)-2-[4-(1H-pyrazol-4-yl)phenyl]-2,7-diazaspiro[4.4]nonan-1-one], 444 nM.
`COc1ccc(C(=O)N2CCC3(CCN(c4ccc(-c5cn[nH]c5)cc4)C3=O)C2)cc1` (stereo not shown) [Example 45, 7-(4-methoxybenzoyl)-2-[4-(1H-pyrazol-4-yl)phenyl]-2,7-diazaspiro[4.4]nonan-1-one] showed a half-maximal inhibitory concentration (IC50) of 180 nM.
`O=C1N(c2ccc(-c3cn[nH]c3)cc2)CCC12CCN(S(=O)(=O)c1ccccc1)C2` (stereo not shown) [Example 46, 7-(benzenesulfonyl)-2-[4-(1H-pyrazol-4-yl)phenyl]-2,7-diazaspiro[4.4]nonan-1-one] gave a 50% inhibitory concentration (IC50) of 750 nM.
`COc1ccc(C(=O)N2CCC3(CC2)CC(=O)N(c2ccc(-c4cn[nH]c4)c(OC)c2)C3)cc1` [Example 47, 2-[3-methoxy-4-(1H-pyrazol-4-yl)phenyl]-8-(4-methoxybenzoyl)-2,8-diazaspiro[4.5]decan-3-one] showed an IC50 of 306 nM.
Next, `CN1CCN(c2ccc(C(=O)N3CCC4(CC3)CCN(c3cccc(-c5cn[nH]c5)c3)C4=O)cc2)CC1` [Example 48, 8-[4-(4-methylpiperazin-1-yl)benzoyl]-2-[3-(1H-pyrazol-4-yl)phenyl]-2,8-diazaspiro[4.5]decan-1-one]: 1100 nM.
In the case of `CN1CCN(c2ccc(C(=O)N3CCC4(CC3)CCN(c3cccc(-c5ccc6cn[nH]c6c5)c3)C4=O)cc2)CC1` [Example 49, 2-[3-(1H-indazol-6-yl)phenyl]-8-[4-(4-methylpiperazin-1-yl)benzoyl]-2,8-diazaspiro[4.5]decan-1-one], 6.8 nM corresponded to half-maximal inhibition (IC50). Against the preceding molecule, the IC50 is about 160-fold lower.
In turn, `COc1ccc(C(=O)N2CCC3(CC2)CCN(c2cccc(-c4ccc5cn[nH]c5c4)c2)C3=O)cc1` [Example 50] had a 50% inhibitory concentration (IC50) of 1680 nM.
`CN1CCN(c2ccc(C(=O)N3CCC4(CC3)CCN(c3cccc(-c5ccc6[nH]ncc6c5)c3)C4=O)cc2)CC1` [Example 51, 2-[3-(1H-indazol-5-yl)phenyl]-8-[4-(4-methylpiperazin-1-yl)benzoyl]-2,8-diazaspiro[4.5]decan-1-one] displayed an IC50 of 14 nM.
As to `COc1ccc(C(=O)N2CCC3(CC2)CCN(c2cccc(-c4ccc5[nH]ncc5c4)c2)C3=O)cc1` [Example 52, 2-[3-(1H-indazol-5-yl)phenyl]-8-(4-methoxybenzoyl)-2,8-diazaspiro[4.5]decan-1-one], the IC50 worked out at 1870 nM.
Take `COc1cc(N2CCC3(CCN(C(=O)c4ccc(-c5cc[nH]n5)cc4)CC3)C2=O)ccc1-c1cn[nH]c1` [Example 53, 2-[3-methoxy-4-(1H-pyrazol-4-yl)phenyl]-8-[4-(1H-pyrazol-3-yl)benzoyl]-2,8-diazaspiro[4.5]decan-1-one]: the IC50 is 16.5 nM. Compared with the last molecule, the IC50 is about 110-fold lower.
For the molecule `COc1cc(N2CCC3(CCN(C(=O)c4ccc(N5CCCC5)cn4)CC3)C2=O)ccc1-c1cn[nH]c1` [Example 54, 2-[3-methoxy-4-(1H-pyrazol-4-yl)phenyl]-8-[5-(pyrrolidin-1-yl)pyridine-2-carbonyl]-2,8-diazaspiro[4.5]decan-1-one], it took 2.1 nM to reach half-maximal inhibition (IC50).
In turn, `COc1cc(N2CCC3(CCN(C(=O)c4ccc(S(N)(=O)=O)cc4)CC3)C2=O)ccc1-c1cn[nH]c1` [Example 55, 4-{2-[3-methoxy-4-(1H-pyrazol-4-yl)phenyl]-1-oxo-2,8-diazaspiro[4.5]decane-8-carbonyl}benzene-1-sulfonamide] showed a 50% inhibitory concentration (IC50) of 96 nM.
`COc1cc(N2CCC3(CCN(C(=O)c4ccncc4)CC3)C2=O)ccc1-c1cn[nH]c1` [Example 56, 2-[3-methoxy-4-(1H-pyrazol-4-yl)phenyl]-8-(pyridine-4-carbonyl)-2,8-diazaspiro[4.5]decan-1-one] registered an IC50 of 433 nM.
As for `COc1cc(N2CCC3(CCN(C(=O)c4cccc(Oc5ccccc5)c4)CC3)C2=O)ccc1-c1cn[nH]c1` [Example 57, 2-[3-methoxy-4-(1H-pyrazol-4-yl)phenyl]-8-(3-phenoxybenzoyl)-2,8-diazaspiro[4.5]decan-1-one], the IC50 amounted to 118 nM.
Next, `COc1cc(N2CCC3(CCN(C(=O)c4cccc(C(F)(F)F)c4)CC3)C2=O)ccc1-c1cn[nH]c1` [Example 58, 2-[3-methoxy-4-(1H-pyrazol-4-yl)phenyl]-8-[3-(trifluoromethyl)benzoyl]-2,8-diazaspiro[4.5]decan-1-one]: 144 nM.
In the case of `COc1cc(N2CCC3(CCN(C(=O)c4ccc(Oc5ccccc5)cc4)CC3)C2=O)ccc1-c1cn[nH]c1` [Example 60, 2-[3-methoxy-4-(1H-pyrazol-4-yl)phenyl]-8-(4-phenoxybenzoyl)-2,8-diazapsiro[4.5]decan-1-one], the concentration for half-maximal inhibition (IC50) was 54 nM. This IC50 is about 2.7-fold lower than that of the molecule before.
Regarding `COc1cc(N2CCC3(CCN(C(=O)c4ccc(-c5ccccc5)cc4)CC3)C2=O)ccc1-c1cn[nH]c1` [Example 61, 8-{[1,1′-biphenyl]-4-carbonyl}-2-[3-methoxy-4-(1H-pyrazol-4-yl)phenyl]-2,8-diazaspiro[4.5]decan-1-one], the midpoint of inhibition, the IC50, lay at 18 nM.
As for `COc1cc(N2CCC3(CCN(C(=O)c4cccn4C)CC3)C2=O)ccc1-c1cn[nH]c1` [Example 62, 2-[3-methoxy-4-(1H-pyrazol-4-yl)phenyl]-8-(1-methyl-1H-pyrrole-2 carbonyl)-2,8-diazaspiro[4.5]decan-1-one], the half-maximal inhibitory concentration (IC50) is 1430 nM. Compared with the last molecule, the IC50 is about 79-fold higher.
Consider `COc1cc(N2CCC3(CCN(C(=O)c4ccco4)CC3)C2=O)ccc1-c1cn[nH]c1` [Example 63, 8-(furan-2-carbonyl)-2-[3-methoxy-4-(1H-pyrazol-4-yl)phenyl]-2,8-diazaspiro[4.5]decan-1-one], for which the midpoint of inhibition, the IC50, lay at 1690 nM.
`COc1cc(N2CCC3(CCN(C(=O)c4ccc5ccccc5c4)CC3)C2=O)ccc1-c1cn[nH]c1` [Example 64, 2-[3-methoxy-4-(1H-pyrazol-4-yl)phenyl]-8-(naphthalene-2-carbonyl)-2,8-diazaspiro[4.5]decan-1-one] registered an IC50 of 104 nM. Against the preceding molecule, the IC50 is about 16-fold lower.
Take `COc1cc(N2CCC3(CCN(C(=O)c4ccoc4)CC3)C2=O)ccc1-c1cn[nH]c1` [Example 65, 8-(furan-3-carbonyl)-2-[3-methoxy-4-(1H-pyrazol-4-yl)phenyl]-2,8-diazaspiro[4.5]decan-1-one]: the IC50 was 752 nM. Compared with the last molecule, the IC50 is about 7.2-fold higher.
With `COc1cc(N2CCC3(CCN(C(=O)c4ccc(C)s4)CC3)C2=O)ccc1-c1cn[nH]c1` [Example 66, 2-[3-methoxy-4-(1H-pyrazol-4-yl)phenyl]-8-(5-methylthiophene-2-carbonyl)-2,8-diazaspiro[4.5]decan-1-one], 372 nM corresponded to half-maximal inhibition (IC50).
The molecule `COc1cc(N2CCC3(CCN(C(=O)c4ccsc4)CC3)C2=O)ccc1-c1cn[nH]c1` [Example 67, 2-[3-methoxy-4-(1H-pyrazol-4-yl)phenyl]-8-(thiophene-3-carbonyl)-2,8-diazaspiro[4.5]decan-1-one] yielded an IC50 of 382 nM.
As to `COc1cc(N2CCC3(CCN(C(=O)c4cc5ccccc5[nH]4)CC3)C2=O)ccc1-c1cn[nH]c1` [Example 68, 8-(1H-indole-2-carbonyl)-2-[3-methoxy-4-(1H-pyrazol-4-yl)phenyl]-2,8-diazaspiro[4.5]decan-1-one], the IC50 came out at 467 nM.
